Reference: PubChem BioAssay (NCI)
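Results reflect a 48-hour exposure of cells in 96-well plates to compound at five concentrations. At the TGI there is no net growth.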

What was measured:
Assay in all cases: NCI tumour cell line growth inhibition, 48 h
786-0 renal = system: 786-0 renal
A549 NSCLC = system: A549 NSCLC
ACHN renal = system: ACHN renal
CAKI-1 renal = system: CAKI-1 renal
CCRF-CEM leukemia = system: CCRF-CEM leukemia
COLO 205 colon = system: COLO 205 colon
DLD-1 colon = system: DLD-1 colon
DMS 114 small cell lung = system: DMS 114 small cell lung
DMS 273 small cell lung = system: DMS 273 small cell lung
EKVX NSCLC = system: EKVX NSCLC
HCT-116 colon = system: HCT-116 colon
HCT-15 colon = system: HCT-15 colon
HL-60(TB) leukemia = system: HL-60(TB) leukemia
HOP-62 NSCLC = system: HOP-62 NSCLC
HT29 colon = system: HT29 colon
IGROV1 ovarian = system: IGROV1 ovarian
K-562 leukemia = system: K-562 leukemia
KM12 colon = system: KM12 colon
KM20L2 colon = system: KM20L2 colon
LOX IMVI melanoma = system: LOX IMVI melanoma
LXFL 529 NSCLC = system: LXFL 529 NSCLC
M14 melanoma = system: M14 melanoma
M19-MEL melanoma = system: M19-MEL melanoma
MALME-3M melanoma = system: MALME-3M melanoma
MOLT-4 leukemia = system: MOLT-4 leukemia
NCI-H226 lung = system: NCI-H226 lung
NCI-H23 lung = system: NCI-H23 lung
NCI-H460 lung = system: NCI-H460 lung
NCI-H522 lung = system: NCI-H522 lung
OVCAR-3 ovarian = system: OVCAR-3 ovarian
OVCAR-4 ovarian = system: OVCAR-4 ovarian
OVCAR-5 ovarian = system: OVCAR-5 ovarian
OVCAR-8 ovarian = system: OVCAR-8 ovarian
RPMI-8226 leukemia = system: RPMI-8226 leukemia
RXF-631 renal = system: RXF-631 renal
SF-268 CNS = system: SF-268 CNS
SF-295 CNS = system: SF-295 CNS
SF-539 CNS = system: SF-539 CNS
SK-MEL-2 melanoma = system: SK-MEL-2 melanoma
SK-MEL-5 melanoma = system: SK-MEL-5 melanoma
SK-OV-3 ovarian = system: SK-OV-3 ovarian
SN12C renal = system: SN12C renal
SNB-19 CNS = system: SNB-19 CNS
SNB-78 CNS = system: SNB-78 CNS
SR leukemia = system: SR leukemia
SW-620 colon = system: SW-620 colon
TK-10 renal = system: TK-10 renal
U251 CNS = system: U251 CNS
UACC-257 melanoma = system: UACC-257 melanoma
UACC-62 melanoma = system: UACC-62 melanoma
UO-31 renal = system: UO-31 renal
A498 renal = system: A498 renal
HCC-2998 colon = system: HCC-2998 colon
HOP-18 NSCLC = system: HOP-18 NSCLC
HOP-92 NSCLC = system: HOP-92 NSCLC
SK-MEL-28 melanoma = system: SK-MEL-28 melanoma
SNB-75 CNS = system: SNB-75 CNS
XF 498 CNS = system: XF 498 CNS

N#CC1([N+](=O)[O-])C=C1c1ccccc1 (stereo unspecified)
TGI (786-0 renal): > 100 µM | TGI (A549 NSCLC): > 100 µM | TGI (ACHN renal): > 100 µM | TGI (CAKI-1 renal): > 100 µM | TGI (CCRF-CEM leukemia): 72.2 µM | TGI (COLO 205 colon): > 100 µM | TGI (DLD-1 colon): > 100 µM | TGI (DMS 114 small cell lung): > 100 µM | TGI (DMS 273 small cell lung): > 100 µM | TGI (EKVX NSCLC): > 100 µM | TGI (HCT-116 colon): > 100 µM | TGI (HCT-15 colon): > 100 µM | TGI (HL-60(TB) leukemia): 46.3 µM | TGI (HOP-62 NSCLC): > 100 µM | TGI (HT29 colon): > 100 µM | TGI (IGROV1 ovarian): > 100 µM | TGI (K-562 leukemia): 71.5 µM | TGI (KM12 colon): > 100 µM | TGI (KM20L2 colon): > 100 µM | TGI (LOX IMVI melanoma): > 100 µM | TGI (LXFL 529 NSCLC): > 100 µM | TGI (M14 melanoma): > 100 µM | TGI (M19-MEL melanoma): > 100 µM | TGI (MALME-3M melanoma): > 100 µM | TGI (MOLT-4 leukemia): > 100 µM | TGI (NCI-H226 lung): > 100 µM | TGI (NCI-H23 lung): > 100 µM | TGI (NCI-H460 lung): > 100 µM | TGI (NCI-H522 lung): 56.6 µM | TGI (OVCAR-3 ovarian): > 100 µM | TGI (OVCAR-4 ovarian): > 100 µM | TGI (OVCAR-5 ovarian): > 100 µM | TGI (OVCAR-8 ovarian): > 100 µM | TGI (RPMI-8226 leukemia): 49.5 µM | TGI (RXF-631 renal): > 100 µM | TGI (SF-268 CNS): > 100 µM | TGI (SF-295 CNS): > 100 µM | TGI (SF-539 CNS): > 100 µM | TGI (SK-MEL-2 melanoma): > 100 µM | TGI (SK-MEL-5 melanoma): > 100 µM | TGI (SK-OV-3 ovarian): > 100 µM | TGI (SN12C renal): > 100 µM | TGI (SNB-19 CNS): > 100 µM | TGI (SNB-78 CNS): > 100 µM | TGI (SR leukemia): 70.3 µM | TGI (SW-620 colon): 41.6 µM | TGI (TK-10 renal): > 100 µM | TGI (U251 CNS): > 100 µM | TGI (UACC-257 melanoma): > 100 µM | TGI (UACC-62 melanoma): 66.3 µM | TGI (UO-31 renal): > 100 µM

NCCSc1nc(N)c2ncn(C3OC(CO)C(O)C3O)c2n1 (stereo unspecified)
TGI (786-0 renal): > 100 µM | TGI (A498 renal): > 100 µM | TGI (A549 NSCLC): > 100 µM | TGI (ACHN renal): > 100 µM | TGI (CAKI-1 renal): > 100 µM | TGI (CCRF-CEM leukemia): > 100 µM | TGI (COLO 205 colon): > 100 µM | TGI (DLD-1 colon): > 100 µM | TGI (DMS 114 small cell lung): > 100 µM | TGI (DMS 273 small cell lung): > 100 µM | TGI (HCC-2998 colon): > 100 µM | TGI (HCT-116 colon): > 100 µM | TGI (HCT-15 colon): > 100 µM | TGI (HL-60(TB) leukemia): > 100 µM | TGI (HOP-18 NSCLC): > 100 µM | TGI (HOP-62 NSCLC): > 100 µM | TGI (HOP-92 NSCLC): > 100 µM | TGI (HT29 colon): > 100 µM | TGI (IGROV1 ovarian): > 100 µM | TGI (K-562 leukemia): > 100 µM | TGI (KM12 colon): > 100 µM | TGI (KM20L2 colon): > 100 µM | TGI (LOX IMVI melanoma): > 100 µM | TGI (M14 melanoma): > 100 µM | TGI (M19-MEL melanoma): > 100 µM | TGI (MALME-3M melanoma): > 100 µM | TGI (MOLT-4 leukemia): > 100 µM | TGI (NCI-H226 lung): > 100 µM | TGI (NCI-H23 lung): > 100 µM | TGI (NCI-H460 lung): > 100 µM | TGI (NCI-H522 lung): > 100 µM | TGI (OVCAR-3 ovarian): > 100 µM | TGI (OVCAR-4 ovarian): > 100 µM | TGI (OVCAR-5 ovarian): > 100 µM | TGI (OVCAR-8 ovarian): > 100 µM | TGI (RPMI-8226 leukemia): > 100 µM | TGI (SF-268 CNS): > 100 µM | TGI (SF-295 CNS): > 100 µM | TGI (SF-539 CNS): > 100 µM | TGI (SK-MEL-2 melanoma): > 100 µM | TGI (SK-MEL-28 melanoma): > 100 µM | TGI (SK-MEL-5 melanoma): > 100 µM | TGI (SK-OV-3 ovarian): > 100 µM | TGI (SN12C renal): > 100 µM | TGI (SNB-19 CNS): > 100 µM | TGI (SNB-75 CNS): > 100 µM | TGI (SNB-78 CNS): > 100 µM | TGI (SR leukemia): > 100 µM | TGI (SW-620 colon): > 100 µM | TGI (TK-10 renal): > 100 µM | TGI (U251 CNS): > 100 µM | TGI (UACC-257 melanoma): > 100 µM | TGI (UACC-62 melanoma): > 100 µM | TGI (UO-31 renal): > 100 µM | TGI (XF 498 CNS): > 100 µM
